Measurements as given in the SangsterLogP compilation.

Experiments:
[1] = method code SF, from DOI: 10.1080/09553009014551091, PMID: 1970998; conditions: pH 7.4
[2] = method code SF-HPLC, from DOI: 10.1021/je900271h
[3] = method code SF-RC,FL, from DOI: 10.1016/0006-2952(81)90006-x, PMID: 6456004
[4] = method code SF-AS, from DOI: 10.1016/0378-5173(80)90117-9
[5] = method code SF-GLC, from DOI: 10.1016/0378-4274(82)90116-3, PMID: 7090003
[6] = not given; remark: listed apart in the source
[7] = not given; remark: listed apart in the source
[8] = not given; remark: listed apart in the source
[9] = method code …, from Buur, A., & Bundgaard, H. (1984). Prodrugs of 5-fluorouracil. II. Hydrolysis kinetics, bioactivation, solubility and lipophilicity of N-alkoxycarbonyl derivatives of 5-fluorouracil. Arch. Pharm. …; conditions: pH 4.0
[10] = method code SF-HPLC, from DOI: 10.1021/jf0623440, PMID: 17263479
[11] = not given; remark: listed apart in the source
[12] = method code SF-HPLC, from PMID: 11745753; conditions: pH 7.4
[13] = method code SF-AS, from DOI: 10.1016/s0045-6535(00)00181-8, PMID: 11272912
[14] = not given; remark: listed apart in the source
[15] = method code SF-AS,RC, from DOI: 10.2307/3575891, PMID: 7122830
[16] = not given; remark: listed apart in the source
[17] = not given; remark: listed apart in the source
[18] = method code SF-RC, from DOI: 10.1038/sj.bjc.6601862, PMID: 15150578
[19] = method code SF-AS, from DOI: 10.1148/radiology.194.3.7862981, PMID: 7862981
[20] = method code SF-GLC, from DOI: 10.1271/bbb1961.46.2755
[21] = method code SF-AS, from DOI: 10.1248/cpb.26.2824
[22] = method code SF, from DOI: 10.1002/jps.2600641111, PMID: 1195110; conditions: pH 7.4
[23] = method code SF-AS, from DOI: 10.1016/j.jhazmat.2007.11.074, PMID: 18180104
[24] = method code SF-AS, from DOI: 10.1016/0006-2952(74)90620-0, PMID: 4822742; conditions: pH 7.4
[25] = method code SF, from DOI: 10.1038/248065a0, PMID: 4150456; conditions: pH 9.0
[26] = method code SF-HPLC, from DOI: 10.1016/s0021-9673(01)81976-2, PMID: 4066822
[27] = method code SF-GLC, from DOI: 10.1039/an9709500763, PMID: 5449617
[28] = method code SF-GLC, from DOI: 10.1016/s0022-3565(25)30310-1, PMID: 1181405; conditions: pH 7.4
[29] = method code SF-AS, from DOI: 10.2116/analsci.8.761; conditions: pH 6.0
[30] = method code SF-HPLC, from DOI: 10.1002/ps.2780370106; conditions: pH 0.0
[31] = method code SF-HPLC, from DOI: 10.1002/jps.2600750520, PMID: 3735094; conditions: pH 4.0
[32] = method code SF-AS, from DOI: 10.1016/j.ejmech.2004.01.002, PMID: 15072846; conditions: pH 7.4
[33] = not given; remark: listed apart in the source
[34] = method code SF-RC, from Audran, M.; Chanal, J.; Marignan, R.; Cousse, H. (1984). Correlations between structure and pharmacokinetic parameters in a series of cresotinamides. International Journal of Pharmaceutics, …; conditions: pH 1.0
[35] = method code SF-HPLC, from Hairsine, P. (1997). Direct measurement of partition coefficient by shake flask technique and gradient elution HPLC. Lab. Practice, 38(11)73-75.
[36] = method code SF-CR, from DOI: 10.1042/bj1780443, PMID: 109087; conditions: pH 7.4
[37] = method code SF-AS, from DOI: 10.1093/ajhp/38.9.1308, PMID: 7282713
[38] = method code SF-HPLC, from PMID: 3268116; conditions: pH 7.0
[39] = not given; remark: listed apart in the source
[40] = method code SF, from DOI: 10.1021/jm020367+, PMID: 12502371
[41] = method code SF-AS, from DOI: 10.1007/s0012800114, PMID: 10885996
[42] = not given; remark: listed apart in the source
[43] = method code SF-AS, from DOI: 10.1111/j.2042-7158.1981.tb11766.x; conditions: pH 1.0
[44] = not given; remark: listed apart in the source
[45] = method code SF-AS, from DOI: 10.1021/es00082a014; conditions: pH 7.0
[46] = method code SF-AS, from DOI: 10.1248/cpb.28.85; conditions: pH 2.0
[47] = method code SF-AS, from DOI: 10.1016/s0022-3565(25)24763-2, PMID: 2019981; conditions: pH 7.4
[48] = method code SF-AS, from Halmekoski, J.; Hannikainen, H. (1964). Rm values of hydroxy-substituted benzoic acids and partition coefficients of the acids between water and aliphatic alcohols. Suomen Kemist. B, 37, 221-226.
[49] = method code SF-LC/MS, from DOI: 10.1002/rcm.3594, PMID: 18543375; conditions: pH 7.4

CCCCCCCBr
logP: 4.44

O=C(NCCO)C(F)(F)Cn1ccnc1[N+](=O)[O-]
logD [1]: -0.52

COc1cc(C(=O)O)ccc1O
logP [2]: 1.46

NCCc1ccc(O)c(O)c1
logP [3]: -0.97

CCOc1ccc(O)cc1
logP [4]: 1.95

C=C(C)C(=O)OC(C)C
logP [5]: 2.25

S=C=Nc1ccc(Br)cc1
logP [6]: 4.03

O=[N+]([O-])c1nccn1[C@@H]1O[C@H](CO)[C@@H](O)[C@H]1O
logP [7]: -1.15

O=NN(CCF)C(=O)NC1CCS(=O)(=O)CC1
logP [8]: -0.41

CCOC(=O)n1c(=O)[nH]cc(F)c1=O
logD [9]: 0.11

O=[N+]([O-])/C=C1/NCCN1Cc1cnc(Cl)s1
logP [10]: 0.03

Cc1ncc(COP(=O)(O)O)c(C=O)c1O
logP [11]: 0.37

COC(=O)c1ccc(N)cc1
logD [12]: 1.48

O=Cc1cc(Br)ccc1O
logP [13]: 2.5

C1=CC=CCC=C1
logP [14]: 2.63

COCC(O)Cn1cc(Br)nc1[N+](=O)[O-] (stereo not given)
logP [15]: 0.46

COC(=O)c1nc(Cl)c(Cl)c(N)c1Cl
logP [16]: 2.3

CC(C)OC(C)(C)C
logP [17]: 2.14

O=C(Cn1ccnc1[N+](=O)[O-])NCCF
logP [18]: -0.8

O=[N+]([O-])c1nccn1C[C@H](O)[C@H](O)CF
logP [19]: -0.77

CCCS(=O)(=O)CCC
logP [20]: 0.39

Cc1ccc(O)c(C(=O)O)c1
logP [21]: 2.78

CC(=O)OCCn1c([N+](=O)[O-])cnc1C
logD [22]: 0.3

CNc1ccc([N+](=O)[O-])cc1
logP [23]: 1.98

CC1=NS(=O)(=O)c2cc(Cl)ccc2N1
logD [24]: 1.08

CNC(=S)NCCSCc1c[nH]cn1
logD [25]: 0.16

COC1=C(OC)C(=O)C=CC1=O
logP [26]: 0.34

COP(=O)(OC)Oc1ccc([N+](=O)[O-])cc1
logP [27]: 1.33

CCCCCOC(=O)NC
logD [28]: 1.96

OCc1ccc(O)cc1
logD [29]: 0.48

NC(=O)Nc1ccc(C(=O)O)cc1
logD [30]: 0.73

O=C(OCCCl)n1cc(F)c(=O)[nH]c1=O
logD [31]: 0.02

NC(=O)N/N=C/C=C/c1ccc([N+](=O)[O-])o1
logD [32]: 0.97

COP(=S)(OC)Oc1cc(Cl)c(Cl)cc1Cl
logP [33]: 4.67

Cc1cccc(C(N)=O)c1O
logD [34]: 2.12

COc1ccccc1C(=O)O
logP [35]: 1.62

CCc1ccc(O)cc1
logD [36]: 2.4

NNc1nncc2ccccc12
logP [37]: 1

c1ccc2[nH]ccc2c1
logD [38]: 2.27

Cc1ccc([N+](=O)[O-])cc1N
logP [39]: 1.87

Nc1n[n+]([O-])c2cc(Cl)ccc2[n+]1[O-]
logP [40]: 0.46

CS(=O)(=O)c1ccc(C=O)cc1
logP [41]: 0.35

COc1ccc([N+](=O)[O-])c(C)c1
logP [42]: 2.38

O=C(O)c1ccc(O)cc1
logD [43]: 1.56

O=C(O)c1ccc([N+](=O)[O-])cc1
logP [44]: 1.9

Cc1ccc(N)cc1C
logD [45]: 1.86

O=C(O)COc1ccccc1
logD [46]: 1.35

CCc1occc(=O)c1O
logD [47]: 0.6

O=C(O)c1cc(O)ccc1O
logP [48]: 1.12

c1ccc2[nH]cnc2c1
logD [49]: 1.53
